According to article PMC9743092, “Membrane-Active Cyclic Amphiphilic Peptides: Broad-Spectrum Antibacterial Activity Alone and in Combination with Antibiotics” (Journal of Medicinal Chemistry, 2022):
Values after ≈ are worked out from the molar mass of the structure shown. Read-outs that look alike come from different tables or passages of the source. One block for each molecule: values may come before it. Peptide text beside a SMILES is read from it.

What was measured:
[1] = test system: K. pneumoniae (ATCC BAA-1705); conditions: antibiotic alone or physical mixture with peptide (1:1 w/w)
[2] = test system: P. aeruginosa (ATCC 27883); conditions: antibiotic alone or physical mixture with peptide (1:1 w/w)
[3] = test system: K. pneumoniae (ATCC BAA-1705); assay: Synergistic checkerboard assay; conditions: for MIC: Klebsiella pneumoniae, ATCCBAA1705, read-out: MIC antibiotic alone
[4] = test system: P. aeruginosa (ATCC 27883); assay: Synergistic checkerboard assay; assay type: cell-based; conditions: Pseudomonas aeruginosa
[5] = test system: P. aeruginosa (ATCC 27883); conditions: 24 h, ≥99.9% kill
[6] = test system: human red blood cells (hRBCs); conditions: red cells of human, 2 h
[7] = test system: K. pneumoniae (ATCC BAA-1705); conditions: 24 h, ≥99.9% kill
[8] = test system: E. coli (ATCC 25922); conditions: 24 h, ≥99.9% kill
[9] = test system: E. coli (ATCC 25922); assay: Synergistic checkerboard assay; assay type: cell-based; conditions: Escherichia coli
[10] = test system: S. aureus (ATCC BAA-1556); assay: Synergistic checkerboard assay; assay type: cell-based; conditions: Staphylococcus aureus
[11] = test system: P. aeruginosa (ATCC 27883); assay: microbe, parasite or virus in culture; conditions: Pseudomonas aeruginosa, ATCC27883, read-out: MIC P. aeruginosa (ATCC 27883)
[12] = test system: MRSA (ATCC BAA-1556); assay: microbe, parasite or virus in culture; conditions: Staphylococcus aureus
[13] = test system: E. coli (ATCC 25922); assay: microbe, parasite or virus in culture; conditions: Escherichia coli
[14] = test system: K. pneumoniae (ATCC BAA-1705); assay: microbe, parasite or virus in culture; conditions: Klebsiella pneumoniae
[15] = ATCC27883, checkerboard, read-out: MIC antibiotic alone
[16] = ATCC25922, read-out: MIC antibiotic alone
[17] = ATCC27883, read-out: MIC antibiotic alone
[18] = ATCCBAA1556, checkerboard, read-out: MIC antibiotic alone
[19] = read-out: MIC S. aureus (ATCC BAA-1556)
[20] = ATCC25922, read-out: MIC E. coli (ATCC 25922)
[21] = ATCC25922, checkerboard, read-out: MIC antibiotic alone
[22] = ATCCBAA1705, read-out: MIC K. pneumoniae (ATCC BAA-1705)

MIC K. pneumoniae (ATCC BAA-1705) [1]: 512 µg/mL (≈ 1200 µM)
MIC P. aeruginosa (ATCC 27883) [2]: 512 µg/mL (≈ 1200 µM)
MIC [3]: 512 µg/mL
MIC antibiotic alone ([3]; checkerboard): 512 µg/mL
MIC [4, 15]: 512 µg/mL
SMILES: CCC[C@@H]1C[C@@H](C(=O)N[C@@H]([C@H]2O[C@H](SC)[C@H](O)[C@@H](O)[C@H]2O)[C@H](C)Cl)N(C)C1 [clindamycin]

SMILES: N=C(N)NCCC[C@@H]1NC(=O)[C@H](CCCNC(=N)N)NC(=O)[C@H](CCCNC(=N)N)NC(=O)[C@H](Cc2c[nH]c3ccccc23)NC(=O)[C@H](Cc2c[nH]c3ccccc23)NC(=O)[C@H](Cc2c[nH]c3ccccc23)NC(=O)[C@H](Cc2c[nH]c3ccccc23)NC(=O)[C@H](CCCNC(=N)N)NC1=O [compound 1, [R4W4]] (cyclo(RRRRWWWW))
MBC P. aeruginosa (ATCC 27883) [5]: 128 µg/mL (≈ 93.5 µM)
HC50 [6]: 175 µg/mL
MBC K. pneumoniae (ATCC BAA-1705) [7]: 64 µg/mL (≈ 46.7 µM)
MBC E. coli (ATCC 25922) [8]: 32 µg/mL (≈ 23.4 µM)

SMILES: C[C@H]1COc2c(N3CCN(C)CC3)c(F)cc3c(=O)c(C(=O)O)cn1c23.C[C@H]1COc2c(N3CCN(C)CC3)c(F)cc3c(=O)c(C(=O)O)cn1c23.O [levofloxacin]
MIC [9, 16]: 64 µg/mL
MIC [3]: 64 µg/mL
MIC [4, 17]: 1 µg/mL

SMILES: Cc1ncc([N+](=O)[O-])n1CCO [metronidazole]
MIC [10, 18]: 32 µg/mL
MIC K. pneumoniae (ATCC BAA-1705) [1]: 256 µg/mL (≈ 1500 µM)
MIC [11]: 32 µg/mL (≈ 187 µM)
MIC [3]: 256 µg/mL
MIC [4, 15]: 32 µg/mL
MIC [12, 19]: 32 µg/mL (≈ 187 µM)

SMILES: CN(C)[C@@H]1C(O)=C(C(N)=O)C(=O)[C@@]2(O)C(O)=C3C(=O)c4c(O)cccc4[C@@](C)(O)[C@H]3C[C@@H]12 [tetracycline]
MIC [13, 20]: 8 µg/mL (≈ 18 µM)
MIC [10, 18]: 0.25 µg/mL
MIC [9, 21]: 8 µg/mL
MIC [11]: 32 µg/mL (≈ 72 µM)
MIC [4, 15]: 32 µg/mL
MIC [12, 19]: 0.25 µg/mL (≈ 0.563 µM)

SMILES: NC[C@H]1O[C@H](O[C@H]2[C@H](O)[C@@H](O[C@H]3O[C@H](CO)[C@@H](O)[C@H](N)[C@H]3O)[C@H](N)C[C@@H]2N)[C@H](N)C[C@@H]1O [tobramycin]
MIC [13, 20]: 8 µg/mL (≈ 17.1 µM)
MIC [10, 18]: 0.5 µg/mL
MIC [9, 21]: 8 µg/mL
MIC [11]: 0.5 µg/mL (≈ 1.07 µM)
MIC [3]: 16 µg/mL
MIC [14, 22]: 16 µg/mL (≈ 34.2 µM)
MIC [4, 15]: 0.5 µg/mL
MIC [12, 19]: 0.5 µg/mL (≈ 1.07 µM)

SMILES: CN[C@H](CC(C)C)C(=O)N[C@H]1C(=O)N[C@@H](CC(N)=O)C(=O)N[C@H]2C(=O)N[C@H]3C(=O)N[C@H](C(=O)N[C@H](C(=O)O)c4cc(O)cc(O)c4-c4cc3ccc4O)[C@H](O)c3ccc(c(Cl)c3)Oc3cc2cc(c3O[C@@H]2O[C@H](CO)[C@@H](O)[C@H](O)[C@H]2O[C@H]2C[C@](C)(N)[C@H](O)[C@H](C)O2)Oc2ccc(cc2Cl)[C@H]1O [vancomycin]
MIC ([13]; ATCC25922, 24 h, read-out: MIC E. coli (ATCC 25922)): 256 µg/mL (≈ 177 µM)
MIC [13, 20]: 256 µg/mL (≈ 177 µM)
MIC ([10]; ATCCBAA1556, read-out: MIC antibiotic alone): 1 µg/mL
MIC [9, 16]: 256 µg/mL
MIC [11]: 256 µg/mL (≈ 177 µM)
MIC [3]: 512 µg/mL
MIC ([14]; ATCCBAA1705, 24 h, read-out: MIC K. pneumoniae (ATCC BAA-1705)): 512 µg/mL (≈ 353 µM)
MIC [14, 22]: 512 µg/mL (≈ 353 µM)
MIC [4, 17]: 256 µg/mL
MIC ([12]; read-out: MIC MRSA (ATCC BAA-1556)): 1 µg/mL (≈ 0.69 µM)
MIC [12, 19]: 1 µg/mL (≈ 0.69 µM)
